From patent US20240174690A1, “ANNULATED 2-AMINO-3-CYANO THIOPHENES AND DERIVATIVES FOR THE TREATMENT OF CANCER” (BOEHRINGER INGELHEIM INTERNATIONAL GMBH, priority 2021, published 2024)

Columns and labels:
KRAS (G12D)::SOS1 = KRAS (G12D)::SOS1 (Homo sapiens (Human), UniProt P01116, G12D); test: KRAS::SOS1 AlphaScreen binding assay, KRAS G12D
Excerpt: (§1) This assay can be used to examine the potency with which compounds according to the invention binding to (mutated) KRAS inhibit the protein-protein interaction between SOS1 and (mutated) KRAS e.g., KRAS WT, KRAS G12C, KRAS G12D, KRAS G12V, KRAS G13D. […] Low IC50 values in this assay setting are indicative of strong inhibition of protein-protein interaction between SOS1 and KRAS:
(§2) These assays measure the inhibitory effect of compounds on KRAS mutant protein-protein interactions using the Alpha Screen technology by Perkin Elmer.
(§3) The following (mutant) enzyme forms of KRAS and interacting proteins are used in these assays at the given concentrations: • KRAS (G12D) 1-169, N-terminal 6His-tag, C-terminal avi-tag (Xtal BioStructures, Inc.); final assay concentration 10 nM and SOS1 564-1049, N-terminal 229 GST-tag, TEV cleavage site (Viva Biotech Ltd); final assay concentration 5 nM; • KRAS (G12C) 1-169, N-terminal 6His-tag for purification, cleaved off, C-terminal avi-tag, biotinylated, mutations: C51S, C80L, C118S (in house); final assay concentration 7.5 nM and SOS1 564-1049, N-terminal 229 GST-tag, TEV cleavage site (Viva Biotech Ltd); final assay concentration 5 nM; • KRAS (G12V) 1-169, N-terminal 6His-tag for purification, cleaved off, C-terminal avi-tag, biotinylated, TEV cleavage site, mutation: C118S, GDP loaded (in house); final assay concentration 10 nM and SOS1 564-1049, N-terminal 229 GST-tag, TEV cleavage site (Viva Biotech Ltd); final assay concentration 10 nM; • KRAS (G13D) 1-169, N-terminal 6His-tag for purification, cleaved off, C-terminal avi-tag, biotinylated, TEV cleavage site, mutation: C118S, GDP loaded (in house); final assay concentration 10 nM and SOS1 564-1049, N-terminal 229 GST-tag, TEV cleavage site (Viva Biotech Ltd); final assay concentration 10 nM; • KRAS (WT) 1-169, N-terminal 6His-tag for purification, cleaved off, C-terminal avi-tag, biotinylated, TEV cleavage site, mutation: C118S, GDP loaded (in house); final assay concentration 10 nM and SOS1 564-1049, N-terminal 229 GST-tag, TEV cleavage site (Viva Biotech Ltd); final assay concentration 10 nM.
(§4) Test compounds dissolved in DMSO are dispensed onto assay plates (Proxiplate 384 PLUS, white, PerkinElmer; 6008289) using an Access Labcyte Workstation with the Labcyte Echo 55×. For the chosen highest assay concentration of 100 μM, 150 nL of compound solution are transferred from a 10 mM DMSO compound stock solution. A series of eleven fivefold dilutions per compound are transferred to the assay plate, compound dilutions are tested in duplicates. DMSO are added as backfill to a total volume of 150 nL.
(§5) The assays run on a fully automated robotic system in a darkened room below 100 Lux. To 150 nl of compound dilution 10 μl of a mix including KRAS mutant protein, SOS1 (final assay concentrations see above) and GDP nucleotide (Sigma G7127; final assay concentration 10 μM) in assay buffer (1×PBS, 0.1% BSA, 0.05% Tween 20) are added into columns 1-24.
(§6) After 30 minutes incubation time 5 μl of Alpha Screen bead mix in assay buffer are added into columns 1-23. Bead mix consists of AlphaLISA Glutathione Acceptor Beads (PerkinElmer, Cat No AL109) and AlphaScreen Streptavidin Donor Beads (PerkinElmer Cat No 6760002) in assay buffer at a final assay concentration of 10 μg/ml each.
(§7) Plates are kept at room temperature in a darkened incubator. After an additional 60 minutes incubation time the signal is measured in a PerkinElmer Envision HTS Multilabel Reader using the AlphaScreen specs from PerkinElmer.
(§8) Each plate contains up to 16 wells of a negative control depending on the dilution procedure (platewise or serial) (DMSO instead of test compound; with KRAS mutant::SOS1 GDP mix and bead mix; column 23) and 16 wells of a positive control (DMSO instead of test compound; with KRAS mutant::SOS1 GDP mix w/o bead mix; column 24).
(§9) As internal control known inhibitors of KRAS mutant::SOS1 interaction can be measured on each compound plate. […]

KRAS (G12C)::SOS1 = KRAS (G12C)::SOS1 (Homo sapiens (Human), UniProt P01116, C118S/C51S/C80L/G12C); test: KRAS::SOS1 AlphaScreen binding assay, KRAS G12C
Excerpt: as §1, §2, §3, §4, §5, §6, §7, §8, §9

[1] = tested on: KRAS G12D-dependent Ba/F3 cells; test: Ba/F3 proliferation assay, KRAS G12D; assay type: cell-based; conditions: Mus musculus, BaF3, 72 h, AlamarBlue
Method: Plasmids containing KRASG12 mutants (i.e. […], G12C, G12V) are obtained from GeneScript. To generate KRASG12-dependent Ba/F3 models, Ba/F3 cells are transduced with retroviruses containing vectors that harbor KRASG12 isoforms. Platinum-E cells (Cell Biolabs) are used for retrovirus packaging. Retrovirus is added to Ba/F3 cells. To ensure infection, 4 μg/mL polybrene is added and cells are spinfected. […] Cells with an infection efficiency of 10% to 20% are further cultivated and puromycin selection with 1 μg/mL is initiated. As a control, parental Ba/F3 cells are used to show selection status. Selection is considered successful when parental Ba/F3 cells cultures died. To evaluate the transforming potential of KRASG12 mutations, the growth medium is no longer supplemented with IL-3. Ba/F3 cells harboring the empty vector are used as a control. Approximately ten days before conducting the experiments, puromycin is left out.
Compounds are added using an Access Labcyte Workstation with a Labcyte Echo 550 or 555 accoustic dispenser. All treatments are performed in technical duplicates. […] AlamarBlue™ (ThermoFisher), a viability stain, is added and fluorescence measured in the PerkinElmer Envision HTS Multilabel Reader. The raw data are imported into and analyzed with the Boehringer Ingelheim proprietary software MegaLab (curve fitting based on the program PRISM, GraphPad Inc.).

KRAS (G12C)::SOS1, sequence (P01116 other isoform, or with tags, fused parts or gaps G12C/C51S/C80L/C118S): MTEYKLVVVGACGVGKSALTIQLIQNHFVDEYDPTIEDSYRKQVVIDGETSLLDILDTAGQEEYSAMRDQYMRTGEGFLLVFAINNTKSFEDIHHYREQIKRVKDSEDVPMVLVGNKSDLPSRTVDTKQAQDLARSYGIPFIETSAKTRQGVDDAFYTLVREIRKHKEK
KRAS (G12D)::SOS1, sequence (P01116 other isoform, or with tags, fused parts or gaps G12D): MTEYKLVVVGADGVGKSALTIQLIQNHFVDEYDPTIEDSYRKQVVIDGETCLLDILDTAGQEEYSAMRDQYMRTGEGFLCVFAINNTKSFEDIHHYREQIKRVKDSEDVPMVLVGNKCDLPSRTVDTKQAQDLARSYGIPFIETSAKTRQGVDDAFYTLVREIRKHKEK

| IC50 (KRAS (G12D)::SOS1) [nM] | IC50 (KRAS (G12C)::SOS1) [nM] | IC50 [1] [nM] | Compound |
| --- | --- | --- | --- |
| 6 | 3 | 81 | C[C@H](Oc1cc(-c2cnn(C)c2)nc(-c2noc3c2CCC[C@@]32CCCc3sc(N)c(C#N)c32)n1)[C@@H]1CCCN1C [II-74] |
| 4 | 2 | 87 | C[C@H](Oc1cc(-c2ccncc2)nc(-c2noc3c2CCC[C@@]32CCCc3sc(N)c(C#N)c32)n1)[C@@H]1CCCN1C [II-78] |
| 7 | 7 | 41 | C[C@H](Oc1cc(-c2cncs2)nc(-c2noc3c2CCC[C@@]32CCCc3sc(N)c(C#N)c32)n1)[C@@H]1CCCN1C [II-80] |
| 6 | 3 | 200 | C[C@H](Oc1cc(-c2cncnc2)nc(-c2noc3c2CCC[C@@]32CCCc3sc(N)c(C#N)c32)n1)[C@@H]1CCCN1C [II-82] |
| 5 | 2 | 59 | C[C@H](Oc1cc(-c2cnn(C)n2)nc(-c2noc3c2CCC[C@@]32CCCc3sc(N)c(C#N)c32)n1)[C@@H]1CCCN1C [II-86] |
| 3 | 3 | 150 | C[C@H](Oc1cc(-c2cn[nH]c2)nc(-c2noc3c2CCC[C@@]32CCCc3sc(N)c(C#N)c32)n1)[C@@H]1CCCN1C [II-87] |

Second part, the compound before the results:

| Compound | IC50 (KRAS (G12D)::SOS1) [nM] | IC50 (KRAS (G12C)::SOS1) [nM] | IC50 [1] [nM] |
| --- | --- | --- | --- |
| C[C@H](Oc1cc(N2CCCC2=O)nc(-c2noc3c2CCC[C@@]32CCCc3sc(N)c(C#N)c32)n1)[C@@H]1CCCN1C [II-73] | 2 | 3 | 16 |
| C[C@H](Oc1cc(N2CCN(C)C2=O)nc(-c2noc3c2CCC[C@@]32CCCc3sc(N)c(C#N)c32)n1)[C@@H]1CCCN1C [II-75] | 1 | 2 | 83 |
| C[C@H](Oc1cc(C2CCOCC2)nc(-c2noc3c2CCC[C@@]32CCCc3sc(N)c(C#N)c32)n1)[C@@H]1CCCN1C [II-76] | 3 | 2 | 30 |
| C[C@H](Oc1cc(N2CCOC3(COC3)C2)nc(-c2noc3c2CCC[C@@]32CCCc3sc(N)c(C#N)c32)n1)[C@@H]1CCCN1C [II-77] | 1 | 2 | 28 |
| Cc1nccn1-c1cc(O[C@@H](C)[C@@H]2CCCN2C)nc(-c2noc3c2CCC[C@@]32CCCc3sc(N)c(C#N)c32)n1 [II-79] | 2 | 2 | 45 |
| CC(=O)N1CC=C(c2cc(O[C@@H](C)[C@@H]3CCCN3C)nc(-c3noc4c3CCC[C@@]43CCCc4sc(N)c(C#N)c43)n2)CC1 [II-81] | 5 | 3 | 103 |
| C[C@H](Oc1cc(-c2ccn(C3COC3)n2)nc(-c2noc3c2CCC[C@@]32CCCc3sc(N)c(C#N)c32)n1)[C@@H]1C[C@H](F)CN1C [II-83] | 20 | 5 | 33 |
| C[C@H](Oc1cc(-c2ccn(-c3ccsc3)n2)nc(-c2noc3c2CCC[C@@]32CCCc3sc(N)c(C#N)c32)n1)[C@@H]1CCCN1C [II-84] | 6 | 3 | 79 |
| C[C@H](Oc1cc(-c2ccccn2)nc(-c2noc3c2CCC[C@@]32CCCc3sc(N)c(C#N)c32)n1)[C@@H]1CCCN1C [II-85] | 2 | 2 | 72 |
| C[C@H](Oc1cc([C@H]2CCOC2)nc(-c2noc3c2CCC[C@@]32CCCc3sc(N)c(C#N)c32)n1)[C@@H]1CCCN1C [II-88] | 1 | 2 | 15 |
| C[C@H](Oc1cc(-c2ccn(-c3ccccc3)n2)nc(-c2noc3c2CCC[C@@]32CCCc3sc(N)c(C#N)c32)n1)[C@@H]1CCCN1C [II-89] | 12 | 3 | 199 |
| C[C@H](Oc1cc(N2CCc3cccnc32)nc(-c2noc3c2CCC[C@@]32CCCc3sc(N)c(C#N)c32)n1)[C@@H]1CCCN1C [II-90] | 21 | 7 | 397 |
| CO[C@@H]1C[C@@H]([C@H](C)Oc2cc(-c3ccn(C)n3)nc(-c3noc4c3CCC[C@@]43CCCc4sc(N)c(C#N)c43)n2)N(C)C1 [II-91] | 4 | 2 | 65 |
